# Test results reported in patent publication US20240109903A1, “SUBSTITUTED HETEROCYCLES FOR TREATING CANCER” (Northwestern University, priority 2022, published 2024).
# Legend:
# HL-60(TB) = experiment: NCI 60 five-dose screen HL-60(TB); format: cell-based; conditions: Homo sapiens, five-dose
# K-562 = experiment: NCI 60 five-dose screen K-562; format: cell-based; conditions: Homo sapiens, K562, five-dose
# MOLT-4 = experiment: NCI 60 five-dose screen MOLT-4; format: cell-based; conditions: Homo sapiens, five-dose
# SR = experiment: NCI 60 five-dose screen SR; format: cell-based, human; conditions: five-dose
# A549/ATCC = experiment: NCI 60 five-dose screen A549/ATCC; format: cell-based; conditions: Homo sapiens, five-dose
# HOP-92 = experiment: NCI 60 five-dose screen HOP-92; format: cell-based; conditions: Homo sapiens, five-dose
# NCI-H322M = experiment: NCI 60 five-dose screen NCI-H322M; format: cell-based; conditions: Homo sapiens, five-dose
# COLO 205 = experiment: NCI 60 five-dose screen COLO 205; format: cell-based; conditions: Homo sapiens, five-dose
# HCC-2998 = experiment: NCI 60 five-dose screen HCC-2998; format: cell-based; conditions: Homo sapiens, five-dose
# HCT-15 = experiment: NCI 60 five-dose screen HCT-15; format: cell-based; conditions: Homo sapiens, five-dose
# HT29 = experiment: NCI 60 five-dose screen HT29; format: cell-based; conditions: Homo sapiens, HT-29, five-dose
# KM12 = experiment: NCI 60 five-dose screen KM12; format: cell-based; conditions: Homo sapiens, five-dose
# SF-268 = experiment: NCI 60 five-dose screen SF-268; format: cell-based; conditions: Homo sapiens, five-dose
# SF-295 = experiment: NCI 60 five-dose screen SF-295; format: cell-based; conditions: Homo sapiens, five-dose
# SF-539 = experiment: NCI 60 five-dose screen SF-539; format: cell-based; conditions: Homo sapiens, five-dose
# SNB-19 = experiment: NCI 60 five-dose screen SNB-19; format: cell-based; conditions: Homo sapiens, five-dose
# LOX IMVI = experiment: NCI 60 five-dose screen LOX IMVI; format: cell-based; conditions: Homo sapiens, five-dose
# MALME-3M = experiment: NCI 60 five-dose screen MALME-3M; format: cell-based; conditions: Homo sapiens, MALME-3M, five-dose
# SK-MEL-2 = experiment: NCI 60 five-dose screen SK-MEL-2; format: cell-based; conditions: Homo sapiens, five-dose
# IGROV1 = experiment: NCI 60 five-dose screen IGROV1; format: cell-based; conditions: Homo sapiens, IGROV-1, five-dose
# OVCAR-8 = experiment: NCI 60 five-dose screen OVCAR-8; format: cell-based; conditions: Homo sapiens, five-dose
# 786-0 = experiment: NCI 60 five-dose screen 786-0; format: cell-based; conditions: Homo sapiens, five-dose
# CAKI-1 = experiment: NCI 60 five-dose screen CAKI-1; format: cell-based; conditions: Homo sapiens, five-dose
# RXF 393 = experiment: NCI 60 five-dose screen RXF 393; format: cell-based; conditions: Homo sapiens, five-dose
# SN12C = experiment: NCI 60 five-dose screen SN12C; format: cell-based; conditions: Homo sapiens, five-dose
# TK-10 = experiment: NCI 60 five-dose screen TK-10; format: cell-based; conditions: Homo sapiens, five-dose
# MCF7 = experiment: NCI 60 five-dose screen MCF7; format: cell-based; conditions: Homo sapiens, five-dose
# MDA-MB-231/ATCC = experiment: NCI 60 five-dose screen MDA-MB-231/ATCC; format: cell-based; conditions: Homo sapiens, five-dose
# [1] = read-out: LC50 (the source's name) (converted)
# [2] = read-out: LC50 (the source's name)
compound,measurement,setting,value
FC(F)(F)c1cc2c(Cl)ncnc2n1CCN1CCOCC1 [NUCC-0226680],GI50,HL-60(TB),2090 nM
same,IC50,HL-60(TB),3.89 µM
same,IC (TGI),HL-60(TB),6.03 µM
same,CC50,HL-60(TB); [1],66.1 µM
same,GI50,K-562,3.02 µM
same,IC50,K-562,3.72 µM
same,IC (TGI),K-562,18.6 µM
same,CC50,K-562; [2],≥ 100 µM
same,GI50,MOLT-4,5.75 µM
same,IC50,MOLT-4,10.7 µM
same,IC (TGI),MOLT-4,28.8 µM
same,CC50,MOLT-4; [2],≥ 100 µM
same,GI50,SR; Homo sapiens,2880 nM
same,IC50,SR; Homo sapiens,4.37 µM
same,CC50,"SR; Homo sapiens, read-out: LC50 (the source's name)",≥ 100 µM
same,TGI,SR,4.9 −log[M]
same,GI50,A549/ATCC,100 µM
same,IC50,A549/ATCC,100 µM
same,IC (TGI),A549/ATCC,100 µM
same,CC50,A549/ATCC; [1],≥ 100 µM
same,GI50,HOP-92,19.1 µM
same,IC50,HOP-92,79.4 µM
same,IC (TGI),HOP-92,60.3 µM
same,CC50,HOP-92; [1],≥ 100 µM
same,GI50,NCI-H322M,15.8 µM
same,IC50,NCI-H322M,41.7 µM
same,IC (TGI),NCI-H322M,53.7 µM
same,CC50,NCI-H322M; [1],≥ 100 µM
same,GI50,COLO 205,26.3 µM
same,IC50,COLO 205,58.9 µM
same,IC (TGI),COLO 205,100 µM
same,CC50,COLO 205; [1],≥ 100 µM
same,GI50,HCC-2998,2240 nM
same,IC50,HCC-2998,4.07 µM
same,IC (TGI),HCC-2998,5.13 µM
same,CC50,HCC-2998; [1],15.8 µM
same,GI50,HCT-15,3.31 µM
same,IC50,HCT-15,4.27 µM
same,IC (TGI),HCT-15,17.8 µM
same,CC50,HCT-15; [1],≥ 100 µM
same,GI50,HT29,27.5 µM
same,IC50,HT29,36.3 µM
same,IC (TGI),HT29,100 µM
same,CC50,HT29; [1],≥ 100 µM
same,GI50,KM12,35.5 µM
same,IC50,KM12,51.3 µM
same,IC (TGI),KM12,100 µM
same,CC50,KM12; [1],≥ 100 µM
same,GI50,SF-268,14.8 µM
same,IC50,SF-268,28.2 µM
same,IC (TGI),SF-268,33.9 µM
same,CC50,SF-268; [1],77.6 µM
same,GI50,SF-295,24.5 µM
same,IC50,SF-295,45.7 µM
same,IC (TGI),SF-295,100 µM
same,CC50,SF-295; [1],≥ 100 µM
same,GI50,SF-539,18.2 µM
same,IC50,SF-539,33.9 µM
same,IC (TGI),SF-539,42.7 µM
same,CC50,SF-539; [1],97.7 µM
same,GI50,SNB-19,15.5 µM
same,IC50,SNB-19,28.8 µM
same,IC (TGI),SNB-19,33.1 µM
same,CC50,SNB-19; [1],70.8 µM
same,GI50,LOX IMVI,1740 nM
same,IC50,LOX IMVI,3.02 µM
same,IC (TGI),LOX IMVI,3.39 µM
same,CC50,LOX IMVI; [1],6.61 µM
same,GI50,MALME-3M,21.9 µM
same,IC50,MALME-3M,87.1 µM
same,IC (TGI),MALME-3M,67.6 µM
same,CC50,MALME-3M; [1],≥ 100 µM
same,GI50,SK-MEL-2,17.4 µM
same,IC50,SK-MEL-2,33.9 µM
same,IC (TGI),SK-MEL-2,33.1 µM
same,CC50,SK-MEL-2; [1],64.6 µM
same,GI50,IGROV1,2510 nM
same,IC50,IGROV1,3.98 µM
same,IC (TGI),IGROV1,7.59 µM
same,CC50,IGROV1; [1],35.5 µM
same,GI50,OVCAR-8,8.51 µM
same,IC50,OVCAR-8,13.8 µM
same,IC (TGI),OVCAR-8,29.5 µM
same,CC50,OVCAR-8; [1],93.3 µM
same,GI50,786-0,37.2 µM
same,IC50,786-0,61.7 µM
same,IC (TGI),786-0,100 µM
same,CC50,786-0; [1],≥ 100 µM
same,GI50,CAKI-1,27.5 µM
same,IC50,CAKI-1,56.2 µM
same,IC (TGI),CAKI-1,100 µM
same,CC50,CAKI-1; [1],≥ 100 µM
same,GI50,RXF 393,14.8 µM
same,IC50,RXF 393,42.7 µM
same,IC (TGI),RXF 393,40.7 µM
same,CC50,RXF 393; [1],≥ 100 µM
same,GI50,SN12C,19.5 µM
same,IC50,SN12C,38.9 µM
same,IC (TGI),SN12C,100 µM
same,CC50,SN12C; [1],≥ 100 µM
same,GI50,TK-10,100 µM
same,IC50,TK-10,100 µM
same,IC (TGI),TK-10,100 µM
same,CC50,TK-10; [1],≥ 100 µM
same,GI50,MCF7,25.1 µM
same,IC50,MCF7,35.5 µM
same,IC (TGI),MCF7,100 µM
same,CC50,MCF7; [1],≥ 100 µM
same,GI50,MDA-MB-231/ATCC,4.37 µM
same,IC50,MDA-MB-231/ATCC,11.5 µM
same,IC (TGI),MDA-MB-231/ATCC,18.2 µM
same,CC50,MDA-MB-231/ATCC; [1],53.7 µM
